# US10450270B2, “Glyoxamide substituted pyrrolamide derivatives and the use thereof as medicaments for the treatment of hepatitis B” (Janssen Sciences Ireland UC, priority 2013, dated 2019)
# Columns and labels:
# [1] = tested on: HBV; experiment: Anti-HBV activity, HepG2.117 inducible HBV producing cell line (Tet-off), intracellular HBV DNA by realtime PCR; assay type: cell-based; conditions: Hepatitis B virus, 72 h; HepG2.117 cells, 3 days of treatment, intracellular HBV DNA; read-out: HepG2 117 EC50
# [2] = Cytotoxicity in HepG2 cells, Resazurin viability assay; conditions: human, HepG2 cells
Compound,EC50 [1],CC50 at 4 days [2]
"CC[C@H](C)[C@@H](CO)NC(=O)C(=O)c1cc(C(=O)Nc2ccc(F)c(C#N)c2)n(C)c1C [Compound 69, N-(3-cyano-4-fluoro-phenyl)-4-[2-[[(1S,2S)-1-(hydroxymethyl)-2-methyl-butyl]amino]-2-oxo-acetyl]-1,5-dimethyl-pyrrole-2-carboxamide]",49 nM,> 25000 nM
"Cn1c(Br)c(C(=O)C(=O)NC(C)(C)C)c(Cl)c1C(=O)Nc1ccc(F)c(C#N)c1 [Compound 50, 5-bromo-4-[2-(tert-butylamino)-2-oxo-acetyl]-3-chloro-N-(3-cyano-4-fluoro-phenyl)-1-methyl-pyrrole-2-carboxamide]",4 nM,> 25000 nM
"C[C@@H](NC(=O)C(=O)c1c(Cl)c(C(=O)Nc2ccc(F)c(C#N)c2)n(C)c1Br)C(F)(F)F [Compound 29, 5-bromo-3-chloro-N-(3-cyano-4-fluoro-phenyl)-1-methyl-4-[2-oxo-2-[[(1R)-2,2,2-trifluoro-1-methyl-ethyl]amino]acetyl]pyrrole-2-carboxamide]",14 nM,> 25000 nM
"Cc1c(C(=O)C(=O)NC2(C(F)(F)F)CCC2)c(Cl)c(C(=O)Nc2ccc(F)c(C#N)c2)n1C [Compound 43, 3-chloro-N-(3-cyano-4-fluoro-phenyl)-1,5-dimethyl-4-[2-oxo-2-[[1-(tri-fluoromethyl)cyclobutyl]amino]acetyl]pyrrole-2-carboxamide]",3 nM,> 25000 nM
"C[C@@H](NC(=O)C(=O)c1cc(C(=O)Nc2ccc(F)c(C#N)c2)n(C)c1C1CC1)C(F)(F)F [Compound 61, N-(3-cyano-4-fluoro-phenyl)-5-cyclopropyl-1-methyl-4-[2-oxo-2-[[(1R)-2,2,2-trifluoro-1-methyl-ethyl]amino]acetyl]pyrrole-2-carboxamide]",120 nM,> 25000 nM
"Cc1c(C(=O)C(=O)NC2(C(F)(F)F)CCC(O)CC2)cc(C(=O)Nc2ccc(F)c(C#N)c2)n1C (centres unmarked) [Compound 82, N-(3-cyano-4-fluoro-phenyl)-4-[2-[[4-hydroxy-1-(trifluoromethyl)cyclo-hexyl]amino]-2-oxo-acetyl]-1,5-dimethyl-pyrrole-2-carboxamide]",3 nM,> 25000 nM
"CC[C@@H](NC(=O)C(=O)c1cn(C)c(C(=O)Nc2ccc(F)c(C#N)c2)c1Cl)C(F)(F)F [Compound 38, 3-chloro-N-(3-cyano-4-fluoro-phenyl)-1-methyl-4-[2-oxo-2-[[(1R)-1-(trifluoromethyl)propyl]amino]acetyl]pyrrole-2-carboxamide]",15 nM,> 25000 nM
"C[C@@H](NC(=O)C(=O)c1cn(C)c(C(=O)Nc2ccc(F)c(C#N)c2)c1F)C(C)(F)F [Compound 93, N-(3-cyano-4-fluoro-phenyl)-4-[2-[[(1R)-2,2-difluoro-1-methylpropyl]-amino]-2-oxo-acetyl]-3-fluoro-1-methyl-pyrrole-2-carboxamide]",15 nM,> 25000 nM
"Cc1c(C(=O)C(=O)NC2(C)CC(F)(F)C2)cc(C(=O)Nc2ccc(F)c(C#N)c2)n1C [Compound 56, N-(3-cyano-4-fluoro-phenyl)-4-[2-[(3,3-difluoro-1-methyl-cyclobutyl)-amino]-2-oxo-acetyl]-1,5-dimethyl-pyrrole-2-carboxamide]",5 nM,> 25000 nM
"C[C@@H](NC(=O)C(=O)c1cc(C(=O)Nc2ccc(F)c(C#N)c2)n(C)c1)C(F)(F)F [Compound 64, N-(3-cyano-4-fluoro-phenyl)-1-methyl-4-[2-oxo-2-[[(1R)-2,2,2-trifluoro-1-methyl-ethyl]amino]acetyl]pyrrole-2-carboxamide]",66 nM,> 25000 nM
"Cc1c(C(=O)C(=O)N[C@H]2CCN(C)C[C@H]2O)cc(C(=O)Nc2ccc(F)c(C#N)c2)n1C [Compound 62, N-(3-cyano-4-fluoro-phenyl)-4-[2-[[(3R,4S)-3-hydroxy-1-methyl-4-piperidyl]amino]-2-oxo-acetyl]-1,5-dimethyl-pyrrole-2-carboxamide]",230 nM,> 25000 nM
"COCC(C)(C)NC(=O)C(=O)c1cc(C(=O)Nc2ccc(F)c(C#N)c2)n(C)c1C [Compound 79, N-(3-cyano-4-fluoro-phenyl)-4-[2-[(2-methoxy-1,1-dimethyl-ethyl)amino]-2-oxo-acetyl]-1,5-dimethyl-pyrrole-2-carboxamide]",8 nM,> 25000 nM
"Cn1cc(C(=O)C(=O)NC2(C)CC(F)(F)C2)c(F)c1C(=O)Nc1ccc(F)c(C#N)c1 [Compound 35, N-(3-cyano-4-fluoro-phenyl)-4-[2-[(3,3-difluoro-1-methyl-cyclobutyl)-amino]-2-oxo-acetyl]-3-fluoro-1-methyl-pyrrole-2-carboxamide]",4 nM,> 25000 nM
"Cc1c(C(=O)C(=O)NC(C)(C)CCO)cc(C(=O)Nc2ccc(F)c(C#N)c2)n1C [Compound 81, N-(3-cyano-4-fluoro-phenyl)-4-[2-[(3-hydroxy-1,1-dimethyl-propyl)amino]-2-oxo-acetyl]-1,5-dimethyl-pyrrole-2-carboxamide]",12 nM,> 25000 nM
"Cn1c(C#N)c(C(=O)C(=O)NC(C)(C)C)c(Cl)c1C(=O)Nc1ccc(F)c(C#N)c1 [Compound 49, 4-[2-(tert-butylamino)-2-oxo-acetyl]-3-chloro-5-cyano-N-(3-cyano-4-fluoro-phenyl)-1-methyl-pyrrole-2-carboxamide]",34 nM,> 25000 nM
"C[C@H](NC(=O)C(=O)c1cc(C(=O)Nc2ccc(F)c(C#N)c2)n(C)c1)C(F)(F)F [Compound 51, N-(3-cyano-4-fluoro-phenyl)-1-methyl-4-[2-oxo-2-[[(1S)-2,2,2-trifluoro-1-methyl-ethyl]amino]acetyl]pyrrole-2-carboxamide]",42 nM,> 25000 nM
"Cc1c(C(=O)C(=O)NC2(C(F)(F)F)CCOC2)c(Cl)c(C(=O)Nc2ccc(F)c(C#N)c2)n1C (racemic) [Compound 41, 3-chloro-N-(3-cyano-4-fluoro-phenyl)-1,5-dimethyl-4-[2-oxo-2-[[3-(tri-fluoromethyl)tetrahydrofuran-3-yl]amino]acetyl]pyrrole-2-carboxamide]",3 nM,> 25000 nM
"Cc1c(C(=O)C(=O)NC2(CO)CC2)cc(C(=O)Nc2ccc(F)c(C#N)c2)n1C [Compound 73, N-(3-cyano-4-fluoro-phenyl)-4-[2-[[1-(hydroxymethyl)cyclopropyl]amino]-2-oxo-acetyl]-1,5-dimethyl-pyrrole-2-carboxamide]",17 nM,> 25000 nM
"Cc1c(C(=O)C(=O)NC(CCO)C2CC2)cc(C(=O)Nc2ccc(F)c(C#N)c2)n1C (centres unmarked) [Compound 74, N-(3-cyano-4-fluoro-phenyl)-4-[2-[(1-cyclopropyl-3-hydroxy-propyl)-amino]-2-oxo-acetyl]-1,5-dimethyl-pyrrole-2-carboxamide]",15 nM,> 25000 nM
"C[C@@H](NC(=O)C(=O)c1c(Cl)c(C(=O)Nc2ccc(F)c(C#N)c2)n(C)c1Cl)C(F)(F)F [Compound 86, 3,5-dichloro-N-(3-cyano-4-fluoro-phenyl)-1-methyl-4-[2-oxo-2-[[(1R)-2,2,2-trifluoro-1-methyl-ethyl]amino]acetyl]pyrrole-2-carboxamide]",6 nM,> 25000 nM
"C[C@@H](NC(=O)C(=O)c1c(F)c(C(=O)Nc2ccc(F)c(C#N)c2)n(C)c1Cl)C(F)(F)F [Compound 91, 5-chloro-N-(3-cyano-4-fluoro-phenyl)-3-fluoro-1-methyl-4-[2-oxo-2-[[(1R)-2,2,2-trifluoro-1-methyl-ethyl]amino]acetyl]pyrrole-2-carboxamide]",300 nM,> 25000 nM
"Cc1c(C(=O)C(=O)N[C@H](C)C(C)(F)F)c(Cl)c(C(=O)Nc2ccc(F)c(C#N)c2)n1C [Compound 46, 3-chloro-N-(3-cyano-4-fluoro-phenyl)-4-[2-[[(1R)-2,2-difluoro-1-methyl-propyl]amino]-2-oxo-acetyl]-1,5-dimethyl-pyrrole-2-carboxamide]",3 nM,> 25000 nM
"Cc1c(C(=O)C(=O)NC2(C)COC2)c(Cl)c(C(=O)Nc2ccc(F)c(C#N)c2)n1C [Compound 44, 3-chloro-N-(3-cyano-4-fluoro-phenyl)-1,5-dimethyl-4-[2-[(3-methyloxetan-3-yl)amino]-2-oxo-acetyl]pyrrole-2-carboxamide]",3 nM,> 25000 nM
"CC[C@@H](NC(=O)C(=O)c1c(Cl)c(C(=O)Nc2ccc(F)c(C#N)c2)n(C)c1C)C(F)(F)F [Compound 42, 3-chloro-N-(3-cyano-4-fluoro-phenyl)-1,5-dimethyl-4-[2-oxo-2-[[(1R)-1-(trifluoromethyl)propyl]amino]acetyl]pyrrole-2-carboxamide]",2 nM,> 25000 nM
"Cc1c(C(=O)C(=O)NC2(C)CCCOC2)cc(C(=O)Nc2ccc(F)c(C#N)c2)n1C (centres unmarked) [Compound 78, N-(3-cyano-4-fluoro-phenyl)-1,5-dimethyl-4-[2-[(3-methyltetrahydropyran-3-yl)amino]-2-oxo-acetyl]pyrrole-2-carboxamide]",8 nM,> 25000 nM
"Cc1c(C(=O)C(=O)N[C@H]2CCCC[C@@H]2O)cc(C(=O)Nc2ccc(F)c(C#N)c2)n1C [Compound 67, N-(3-cyano-4-fluoro-phenyl)-4-[2-[[(1S,2S)-2-hydroxycyclohexyl]amino]-2-oxo-acetyl]-1,5-dimethyl-pyrrole-2-carboxamide]",94 nM,> 25000 nM
"C[C@@H](NC(=O)C(=O)c1cn(C)c(C(=O)Nc2ccc(F)c(C#N)c2)c1F)C(F)(F)F [Compound 85, N-(3-cyano-4-fluoro-phenyl)-3-fluoro-1-methyl-4-[2-oxo-2-[[(1R)-2,2,2-trifluoro-1-methyl-ethyl]amino]acetyl]pyrrole-2-carboxamide]",14 nM,> 25000 nM
"Cc1c(C(=O)C(=O)N[C@@H](C)C(C)(F)F)cc(C(=O)Nc2ccc(F)c(C#N)c2)n1C [Compound 55, N-(3-cyano-4-fluoro-phenyl)-4-[2-[[(1S)-2,2-difluoro-1-methyl-propyl]-amino]-2-oxo-acetyl]-1,5-dimethyl-pyrrole-2-carboxamide]",9 nM,> 25000 nM
